Legend:
MeWo = experiment: CellTiter-Glo cell proliferation inhibition, MeWo; format: cell-based, human; details: for IC50: MeWo cells, CellTiter-Glo
Method: (§1) In this study, the CellTiter-Glo® Luminescent Cell Viability Assay kit from Promega was used to evaluate the inhibitory effects of the disclosed compounds on the proliferation of cell lines KYSE520 (a human esophageal squamous cell carcinoma cell line dependent on SHP2 for growth), MeWo (a human malignant melanoma cell line), and MV4-11 (an RTK-mutant human acute monocytic leukemia cell line).
Using essentially the same experimental materials, MeWo cells (ATCC, catalog #HTB-65) were treated similarly: when thawing the cells, the cryovial was rapidly shaken in a 37 °C water bath to thaw the cells within 1 minute. The thawed cell suspension was mixed with MEM/EBSS culture medium containing 10% FBS (HyClone, catalog #SH30024.01), centrifuged at 1000 rpm for 5 minutes, and the supernatant was discarded. The cell pellet was resuspended in 5 mL of complete culture medium (MEM/EBSS medium containing 10% FBS), placed in a cell culture flask with 25 cm^2 of bottom area, and cultured in a cell culture incubator at 37 °C, 95% humidity, and 5% CO2. Cell passaging was performed when the cell confluence reached approximately 80%. During cell passaging, the old culture medium was discarded, the cells were washed once with DPBS, and 1 mL of trypsin was added to digest the cells. When the cells dispersed into single cells and detached from the bottom of the cell culture flask, 3 mL of new complete culture medium was added to stop the digestion. After thoroughly mixing the cell suspension, 1/5 of the cell suspension was retained, 5 mL of new complete culture medium was added, and after thorough mixing, the cells were placed in a cell culture flask for further culture. Cell plating was performed when the cell confluence again reached approximately 80%. During cell plating, following the cell passaging method, 1/5 of the cell suspension was retained for further culture, and the remaining 4/5 of the cell suspension was placed in a 15 mL centrifuge tube. Cell viability was determined using the trypan blue exclusion method to ensure that cell viability was above 90%. A cell suspension with a density of 2.22 × 10^4 cells/mL was prepared using MEM/EBSS culture medium containing 5% FBS. 90 µL of the cell suspension was added to a 96-well cell culture plate, resulting in a cell density of 2000 viable cells/well in the cell culture plate. A control group without cells and without compounds, containing only complete culture medium (i.e., culture medium control), and a control group without compounds but containing cells (i.e., cell control) were set up. The cell plate was cultured overnight in the cell culture incubator. First, a 10 mM stock solution of the compound (Example compound and positive control compound 11a-1) in DMSO was serially diluted with DMSO at a 3-fold dilution, down to the 9th concentration. A 10th concentration containing only DMSO (without the compound) was also prepared as a control. Then, the DMSO solutions containing different concentrations of the compound were diluted 100-fold with complete culture medium, resulting in a 1% DMSO concentration in each solution. Finally, 10 µL of each solution was added to the corresponding wells of the cell culture plate, resulting in a starting compound concentration of 10 µM, with a 3-fold dilution between adjacent concentrations, and a 0.1% DMSO concentration in the cell culture plate. The cell plates were then incubated in a cell culture incubator for 72 hours.
(§2) For endpoint detection, CellTiter-Glo reagent (Promega, catalog number #G7573, CellTiter-Glo® Luminescent Cell Viability Assay Kit) was melt and each cell plate was moved to room temperature for equilibration for 30 minutes. 75 µL (KYSE520 cells) or 50 µL (MeWo cells and MV 4-11 cells) of CellTiter-Glo was added to each well of the corresponding cell plate. The plates were shaken on a track-mounted shaker for 2 minutes to fully lyse the cells. The cell plates were kept at room temperature for 8 minutes to stabilize the luminescence signal. […]

MV4-11 = experiment: CellTiter-Glo cell proliferation inhibition, MV4-11; format: cell-based, human; details: for IC50: Homo sapiens, MV4-11 cells, 72 hours, CellTiter-Glo, read-out: IC50 (µM) M V4-11
Source text: as §1
Using essentially the same experimental materials, MV4-11 cells (Nanjing Cobio Biotechnology Co., Ltd., Catalog #CBP60522) were treated similarly: when thawing the cells, the cryovial was rapidly shaken in a 37 °C water bath to thaw within 1 minute. The thawed cell suspension was mixed with IMDM culture medium containing 10% FBS (HyClone, Catalog #SH30228.01), centrifuged at 1000 rpm for 7 minutes, and the supernatant was discarded. The cell pellet was resuspended in 5 mL of complete culture medium (IMDM medium containing 10% FBS) placed in a cell culture flask with 25 cm^2 of bottom area, and cultured in a cell culture incubator at 37 °C, 95% humidity, and 5% CO2. Cell passaging was performed when the cell density reached approximately 10^6 cells/mL. During cell passaging, the old cell suspension was thoroughly mixed, 1/5 of the cell suspension was retained, and 4 mL of new complete culture medium was added. After thorough mixing, the cells were placed back in the cell culture incubator for further culture. Cell plating was performed when the cell density again reached approximately 10^6 cells/mL. During cell plating, following the cell passage method, 1/5 of the cell suspension was retained for continued culture, and the remaining 4/5 of the cell suspension was placed in a 15 mL centrifuge tube. Cell viability was determined using the trypan blue exclusion method to ensure that cell viability was above 90%. A cell suspension with a density of 1.11 × 10^5 viable cells/mL was prepared using complete culture medium. 90 µL of the cell suspension was added to a 96-well cell culture plate, resulting in a cell density of 10000 viable cells/well. A control group without cells and without compounds, containing only complete culture medium (i.e., culture medium control) and a control group without compounds but containing cells (i.e., cell control) were set up. The cell plate was incubated overnight in the cell culture incubator. First, a 10 mM stock solution of the compound (Example compound and positive control compound 11a-1) in DMSO was serially diluted with DMSO at a 3-fold dilution, down to the 9th concentrations. A 10th concentration containing only DMSO (without the compound) was also prepared as a control. Then, the DMSO solutions containing different concentrations of the compound were diluted 100-fold with complete culture medium, resulting in a DMSO concentration of 1% in each solution. Finally, 10 µL of each solution was added to the corresponding wells of a cell culture plate, resulting in an initial compound concentration of 10 µM, with a 3-fold dilution between adjacent concentrations, and a DMSO concentration of 0.1% in the cell culture plate. The cell plate was then incubated in a cell culture incubator for 72 hours.
as §2, with “signal. A multi-mode microplate reader (PerkinEImer, Envision 2105 Multimode plate Read) was used to full-wavelength scan the luminescence value of each well.” for “signal.”

Structure (SMILES) | IC50 (MV4-11) | IC50 against MV4-11 cells, fold lower than 11a-1 (MV4-11; relative to 11a-1 (5.13 µM)) | IC50 (MeWo; Homo sapiens, MeWo, 72 h) | IC50 (MeWo; 72 hours) | IC50 against Mewo cells, fold lower than 11a-1 (MeWo; relative to 11a-1 (3.10 µM))
O=C(Nc1ccc(-c2cc3cc(F)c(-c4nnn[nH]4)cc3n2C2CCC2)cc1)C(=O)Nc1ccc(N2CCC(C3COC3)CC2)cc1 [Example 20] | > 10 µM | – | 0.042 µM | – | –
CC(C)(O)C1CCN(c2ccc(NC(=O)C(=O)Nc3ccc(-c4cc5cc(F)c(-c6nnn[nH]6)cc5n4C4CCC4)cc3)cc2)CC1 [Example 33] | > 10 µM | – | 0.117 µM | – | –
O=C(Nc1ccc(-c2cc3cc(F)c(-c4nnn[nH]4)cc3n2C2CCC2)cc1)C(=O)Nc1ccc(N2CC3(CCOCC3)C2)cc1 [Example 57] | 0.127 µM | – | 0.096 µM | – | –
CC1(n2c(-c3ccc(NC(=O)C(=O)Nc4ccc(N5CCC6(CCOC6)CC5)cc4)cc3)cc3cc(F)c(-c4nnn[nH]4)cc32)CCC1 [Example 68] | 0.06 µM | 85 fold | 0.06 µM | 0.031 µM | 100 fold
O=C(Nc1ccc(-c2cc3cc(F)c(-c4nnn[nH]4)cc3n2C2CCC2)cc1)C(=O)Nc1ccc(N2CCC3(CCOCC3)CC2)cc1 [Example 76] | 0.173 µM | – | 0.041 µM | – | –
O=C(Nc1ccc(-c2cc3cc(F)c(-c4nnn[nH]4)cc3n2C2CCC2)cc1)C(=O)Nc1ccc(N2CCC3(CCC(O)C3)C2)cc1 (stereo not drawn) [Example 92] | 0.123 µM | – | 0.098 µM | – | –
O=C(Nc1ccc(-c2cc3cc(F)c(-c4nnn[nH]4)cc3n2C2CCC2)cc1)C(=O)Nc1ccc(N2CCC3(CC2)CC(CO)C3)cc1 [Example 96] | > 10 µM | – | 0.103 µM | – | –
CC1(n2c(-c3ccc(NC(=O)C(=O)Nc4ccc(N5CCC6(CC5)CC(CO)C6)cc4)cc3)cc3cc(F)c(-c4nnn[nH]4)cc32)CCC1 [Example 97] | 0.305 µM | – | 0.11 µM | – | –
CC1(O)CCC2(CCN(c3ccc(NC(=O)C(=O)Nc4ccc(-c5cc6cc(F)c(-c7nnn[nH]7)cc6n5C5CCC5)cc4)cc3)CC2)CC1 [Example 110] | 0.133 µM | – | 0.086 µM | – | –

More lines, main results first:

IC50 (MV4-11) | IC50 against MV4-11 cells, fold lower than 11a-1 (MV4-11; relative to 11a-1 (5.13 µM)) | Structure (SMILES) | IC50 (MeWo; Homo sapiens, MeWo, 72 h) | IC50 (MeWo; 72 hours) | IC50 against Mewo cells, fold lower than 11a-1 (MeWo; relative to 11a-1 (3.10 µM))
0.108 µM | – | O=C(Nc1ccc(-c2cc3cc(F)c(-c4nnn[nH]4)cc3n2C2CCC2)cc1)C(=O)Nc1ccc(N2CCC(CCO)CC2)cc1 [Example 25] | 0.04 µM | – | –
0.269 µM | – | CC1(CO)CCN(c2ccc(NC(=O)C(=O)Nc3ccc(-c4cc5cc(F)c(-c6nnn[nH]6)cc5n4C4CCC4)cc3)cc2)CC1 [Example 40] | 0.073 µM | – | –
3.03 µM | – | O=C(Nc1ccc(-c2cc3cc(F)c(-c4nnn[nH]4)cc3n2C2CCC2)cc1)C(=O)Nc1ccc(N2CCC3(CCOC3)C2)cc1 (stereo not drawn) [Example 61] | 0.115 µM | – | –
> 10 µM | – | O=C(Nc1ccc(-c2cc3cc(F)c(-c4nnn[nH]4)cc3n2C2CCC2)cc1)C(=O)Nc1ccc(N2CCC3(CCOC3)CC2)cc1 [Example 67] | 0.038 µM | – | –
4.25 µM | – | CC1(n2c(-c3ccc(NC(=O)C(=O)Nc4ccc(N5CCC6(CCOC6)CC5)cc4)cc3)cc3cc(F)c(-c4nnn[nH]4)cc32)CC1 [Example 70] | 0.213 µM | – | –
0.094 µM | – | CC1(n2c(-c3ccc(NC(=O)C(=O)Nc4ccc(N5CCC6(CCOCC6)CC5)cc4)cc3)cc3cc(F)c(-c4nnn[nH]4)cc32)CCC1 [Example 77] | 0.034 µM | – | –
0.095 µM | – | O=C(Nc1ccc(-c2cc3cc(F)c(-c4nnn[nH]4)cc3n2C2CCC2)cc1)C(=O)Nc1ccc(N2CCC3(CC(O)C3)C2)cc1 (stereo not drawn) [Example 89] | 0.036 µM | – | –
0.237 µM | – | CC1(O)CC2(CCN(c3ccc(NC(=O)C(=O)Nc4ccc(-c5cc6cc(F)c(-c7nnn[nH]7)cc6n5C5CCC5)cc4)cc3)CC2)C1 [Example 94] | 0.041 µM | – | –
0.126 µM | – | O=C(Nc1ccc(-c2cc3cc(F)c(-c4nnn[nH]4)cc3n2C2CCC2)cc1)C(=O)Nc1ccc(N2CCC3(CCC(O)C3)CC2)cc1 (stereo not drawn) [Example 100] | 0.038 µM | – | –
0.115 µM | – | O=C(Nc1ccc(-c2cc3cc(F)c(-c4nnn[nH]4)cc3n2C2CCC2)cc1)C(=O)Nc1ccc(N2CCC3(CCC(O)CC3)CC2)cc1 [Example 108] | 0.034 µM | – | –
0.156 µM | – | O=C(Nc1ccc(-c2cc3cc(F)c(-c4nnn[nH]4)cc3n2C2CCC2)cc1)C(=O)Nc1ccc(N2CC3COCC3C2)cc1 (stereo not drawn) [Example 114] | 0.078 µM | – | –
0.263 µM | – | O=C(Nc1ccc(-c2cc3cc(F)c(-c4nnn[nH]4)cc3n2C2CCC2)cc1)C(=O)Nc1ccc(N2CC3CC(O)CC3C2)cc1 (stereo not drawn) [Example 116] | 0.067 µM | – | –

— patent EP4741383A1, “COMPOUND AND USE THEREOF AS ANTI-CANCER DRUG” (Tyligand Bioscience (Shanghai) Limited, priority 2023, dated 2025)
